# From patent publication US6808924B1, “Mouse mammary tumor lines expressing estrogen and progesterone receptors” (priority 2000, dated 2004)
# What was measured:
# [1] = system: MC7-L1 cell line; assay: In vitro hormone response, 3H-thymidine uptake, MC7-L1; format: cell-based, mouse; parameters: In vitro proliferative response: key to the marks not given beside the values
# Protocol: (§1) 3H-Thymidine uptake: In a 96 well microplate, 0.1 ml/well of a cell suspension were seeded in EM at a concentration of 10^5 cell/ml. After attachment (24 hs), the cells were incubated for 72 hs with the experimental solutions to be tested. Half the media was changed every 24 hs. The cells were incubated with 0.4 μCi of ^3H-thymidine (specific activity: 20 Ci/mmol) for 24 hs, trypsinized and harvested in a cell harvester. Filters were counted in a liquid scintillation counter. Assays were performed in octuplicates and mean and standard deviation were calculated for each solution tested. The difference between controls and experimental groups were analyzed by ANOVA followed by Dunnet's t test between groups.
# [2] = system: MC4-L3 tumors; assay: In vivo hormone response, MC4-L3 tumors in BALB/c female mice; parameters: species or system mouse; settings: for effect on tumor size (tumor regression): MC4-L3 tumors about 50 mm2, ZK 10 mg/Kg or RU 6.5 mg/Kg daily sc, E2 5 mg silastic pellet sc
# Protocol: (§2) Cells were trypsinized and resuspended in 10 fold excess of culture medium and 10% FCS. After centrifugation cells were resuspended in serum-free medium and […] were injected sc in a final volume of 0.1 ml using a 21 gauge needle in the right inguinal flank of BALB/c mice which have been inoculated contralaterally with 40 mg MPA depot (Gador Laboratories, Buenos Aires). The mice were examined every three days for the development of palpable tumors. At the end of the experiment the animals were killed and the tumors excised. Complete autopsies were performed to detect the presence of metastases. Animal care was in agreement with institutional guidelines. Cells from different lines were inoculated into BALB/c female mice treated or not with MPA as described previously. If tumors grew similarly in treated and untreated animals, the tumors growing in untreated mice were used for the next passage. Tumors were transplanted by trocar sc in the right inguinal flank of 2 month old, BALB/c female mice. Hormone treatments were initiated when the tumors reached around 50 mm2. RU (6.5 mg/Kg body weight) and ZK (10 mg/Kg body weight) were inoculated as daily sc injections. E2 was administered as 5 mg silastic pellets implanted sc. Tumor growth was measured every 2-3 days.
# [3] = system: MC4-L1 tumors; assay: In vivo hormone response, MC4-L1 tumors in BALB/c female mice; parameters: species or system mouse; settings: for effect on tumor size (tumor regression): MC4-L1 tumors about 50 mm2, no MPA, ZK 10 mg/Kg or RU 6.5 mg/Kg daily sc, E2 5 mg silastic pellet sc
# Protocol: as §2
# [4] = system: MC4-L1 cell line; assay: In vitro hormone response, 3H-thymidine uptake, MC4-L1; format: cell-based, mouse
# Protocol: as §1
# [5] = system: MC4-L2 tumors; assay: In vivo hormone response, MC4-L2 tumors in BALB/c female mice; parameters: species or system mouse
# Protocol: as §2
# [6] = system: MC4-L2 cell line; assay: In vitro hormone response, 3H-thymidine uptake, MC4-L2; format: cell-based, mouse
# Protocol: as §1
# [7] = system: MC7-L1 tumors; assay: In vivo hormone response, MC7-L1 tumors in BALB/c female mice; parameters: species or system mouse; settings: for effect on tumor size (tumor regression): MC7-L1 tumors, ZK 10 mg/Kg or RU 6.5 mg/Kg daily sc, E2 5 mg silastic pellet sc
# Protocol: as §2
# [8] = system: MC4-L3 cell line; assay: In vitro hormone response, 3H-thymidine uptake, MC4-L3; format: cell-based, mouse
# Protocol: as §1
# [9] = system: C4-HD primary and secondary cultures; settings: primary and secondary cultures of C4-HD (Dran G. et al. 1995); cited from earlier work
# [10] = MC4-L1, early passages (before passage number 16)
molecule,measurement,setting,value
"CC#C[C@]1(O)CC[C@H]2[C@@H]3CCC4=CC(=O)CCC4=C3[C@@H](c3ccc(N(C)C)cc3)C[C@@]21C [RU, mifepristone]",effect on cell proliferation (3H-thymidine uptake),"[1]; MC7-L1, about 0.1 to about 1 μM",stimulatory effect
same,effect on tumor size (tumor regression),[2],Complete regression
same,effect on tumor size (tumor regression),[3],Only animals treated with ZK showed tumor regression
same,effect on cell proliferation (3H-thymidine uptake),[4]; [10],agonist effect
same,effect on tumor size (tumor regression),"[5]; MC4-L2 tumors about 50 mm2, RU 6.5 mg/Kg daily sc",complete regression
same,effect on cell proliferation (3H-thymidine uptake),[6]; MC4-L2,did not induce any change
same,effect on tumor size (tumor regression),[7],not inhibited
"CN(C)c1ccc([C@H]2C[C@]3(C)[C@@H](CC[C@]3(O)CCCO)[C@@H]3CCC4=CC(=O)CCC4=C32)cc1 [ZK, onapristone]",effect on thymidine uptake,[1]; MC7-L1,did not modify thymidine uptake
same,effect on tumor size (tumor regression),[2],Complete regression
same,effect on tumor size (tumor regression),[3],showed tumor regression
same,effect on cell proliferation (3H-thymidine uptake),"[4]; MC4-L1, μM concentrations",stimulated cell proliferation
same,effect on cell proliferation (3H-thymidine uptake),"[6]; MC4-L2, about 0.1 to about 1 uM",in some experiments showed an inhibitory effect
same,effect on tumor size (tumor regression),[7],not inhibited
TGFβ1: TGFβ1,effect on thymidine uptake,[1]; MC7-L1,had no effects
same,effect on cell proliferation (3H-thymidine uptake),"[4]; MC4-L1, later passages",significant inhibition of cell growth
same,effect on cell proliferation (3H-thymidine uptake),[8]; MC4-L3,inhibited
"CC(=O)O[C@]1(C(C)=O)CC[C@H]2[C@@H]3C[C@H](C)C4=CC(=O)CC[C@]4(C)[C@H]3CC[C@@]21C [MPA, medroxyprogesterone acetate]",effect on cell growth (3H-thymidine uptake),"[1]; MC7-L1, about 1 nM to about 1 uM",significantly stimulates cell growth
same,MPA dependence of tumor growth,"[2]; MC4-L3, MPA-treated vs non-treated mice",PD pattern
same,MPA dependence of tumor growth,"[3]; MC4-L1 inoculated sc, mice treated or not with 40 mg MPA depot sc",same pattern of growth that was observed in the parental tumor line
same,MPA dependence of tumor growth,"[3]; MC4-L1 subculture 70, 3rd passage",MPA-dependent
same,MPA dependence of tumor growth,"[3]; MC4-L1 subculture 70, next passage",growth was favored
same,effect on cell proliferation (3H-thymidine uptake),[4]; [10],stimulatory effect
same,effect on cell proliferation (3H-thymidine uptake),"[4]; MC4-L1, later passages",only evident (p<0.05) with uM concentrations
same,MPA dependence of tumor growth,"[5]; MC4-L2, MPA-treated vs non-treated mice",PI pattern of growth
same,effect on cell proliferation,[9],stimulates directly cell proliferation
same,effect on cell proliferation (3H-thymidine uptake),"[6]; MC4-L2, 0.1 nM to about 10 nM",significant stimulatory effect
same,MPA dependence of tumor growth,"[7]; MC7-L1, MPA-treated vs non-treated mice",PI pattern of growth
"C[C@]12CC[C@@H]3c4ccc(O)cc4CC[C@H]3[C@@H]1CC[C@@H]2O [E2, estradiol]",concentration at which the higher values of proliferation were obtained,[1]; MC7-L1,about 1 nM
same,In vitro proliferative response,"[1]; MC7-L1, Table 2 grade",++
same,In vitro proliferative response,"[4]; MC4-L1, Table 2 grade",±
same,In vitro proliferative response,"[8]; MC4-L3, Table 2 grade",−
same,In vitro proliferative response,"[6]; MC4-L2, Table 2 grade",+
same,effect on tumor size (tumor regression),[7],not inhibited
